The values that follow come from patent publication US20050032827A1, “Sigma ligands for neuronal regeneration and functional recovery” (priority 2003, published 2005).

The target of series [1] is sigma-1 site (Homo sapiens, UniProt Q99720). Conditions: (+) isomers of benzomorphan opiates; Hellewell and Bowen (1990); cited from earlier work.
The test system of series [2] is NMDA-induced toxicity and seizures. Conditions: in vivo models; Pontecorvo et al. (1991); cited from earlier work.
Series [3] deals with SHR (spontaneous hypertensive) rats, stroke by MCA occlusion. Nature of the series: Rotating pole test after MCA occlusion. Format: in vivo, rat. Particulars: 0.03-10 mg/kg s.c. or p.o. from two days after MCAO for 2-8 weeks; saline control. The text has this: (§1) Male 3 months old SHR (spontaneous hypertensive) rats are used for induction of stroke by MCA occlusion. This is the preferred strain since most stroke patients are hypertensive. The animals are anesthetized with Methohexital and a small craniectomy is made above the zygmotic arch to expose the middle cerebral artery, which is occluded with a 10-0 monofilament nylon thread distal to the origin of the striatal branches. The rats are not intubated and no catheters are inserted. Following MCA occlusion a large and reproducible infarct is obtained, leading to a robust sensorimotor deficit. The animals are kept on a 6 hr light/18 h dark cycle with free access to food and water. At two days after the MCAO the rats are treated with the compound I, II, III, IV, V, VI, VII, VIII, or IX (0.03-10 mg/kg) s.c. or p.o. and a control group is given saline for 2-8 weeks. At 2, 4, 6 and 8 weeks animals are tested in the rotating pole or cylinder test
A score of 6-0 is given for each direction: • 6, the animal crosses the pole with no foot slips; • 5, the animal crosses the pole with a few foot slips; • 4, the animal crosses the pole, slipping 50% of the footsteps; • 3, the animal crosses the pole with more than 50% foot slips; • 2, the animal walks a bit and then rotates around the pole; • 1, the animal rotates around the pole without crossing it; • 0, the animal falls off the pole. Cylinder Test for Asymmetric Use of Forelimb Use in Spontaneous Rearing

Series [4] shares this test system. Description: Cylinder test for asymmetric forelimb use after MCA occlusion. The format is in vivo, rat. Conditions: 0.03-10 mg/kg s.c. or p.o. from two days after MCAO for 2-8 weeks; saline control.
Description: as §1
The cylinder test (modified from Schallert and Tillerson (Innovative models of CNS disease: from molecule to therapy. Clifton, N.J., Humana, 1999) is used to quantify the forelimb use for rearing on the cylinder wall. The rats are monitored as they move freely in a 20-cm-wide clear glass cylinder. Contacts made by each forepaw with the cylinder wall while rearing are scored by a blinded observer. A total of 20 contacts are recorded for each animal, and the number of impaired (left), both, and non-impaired forelimb contacts as percentage of total contacts is calculated. Baseline for rats is achieved by measuring the contacts made by each forepaw before MCAO.

Series [5] concerns rat primary neuronal cultures. Particulars: Nakazawa et al. (1998); cited from earlier work.
The subject of series [6] is cultured rat retinal neurons. Particulars: Senda et al. (1998); cited from earlier work.
Series [7] deals with sigma-1 receptor (Homo sapiens, UniProt Q99720). Conditions: literature reports; cited from earlier work.
The test system of series [8] is hypertensive rats exposed to permanent middle artery occlusion (MCAO), a model of ischemic stroke. Nature of the series: Morris water maze after permanent MCAO. The format is in vivo, rat. Conditions: for Latency to Find Hidden Platform, TRIAL 3 / Latency to Find Hidden Platform, TRIAL 4 / Latency to Find Hidden Platform, TRIAL 5 / Latency to Find Hidden Platform, TRIAL 1 / Latency to Find Hidden Platform, TRIAL 2 / Path Length to Find Hidden Platform, TRIAL 1 / Path Length to Find Hidden Platform, TRIAL 2 / Path Length to Find Hidden Platform, TRIAL 3 / Path Length to Find Hidden Platform, TRIAL 4 / Path Length to Find Hidden Platform, TRIAL 5: 14 days from day 2 after MCAO, tested day 35; for Latency to Find Hidden Platform, TRIAL 1 / Latency to Find Hidden Platform, TRIAL 2 / Path Length to Find Hidden Platform, TRIAL 1 / Path Length to Find Hidden Platform, TRIAL 2 / Path Length to Find Hidden Platform, TRIAL 3 / Path Length to Find Hidden Platform, TRIAL 4 / Path Length to Find Hidden Platform, TRIAL 5: value (SEM). On the procedure:
The Morris water maze was used to assess functional recovery, in particular recovery in a cognitive skill, in hypertensive rats after exposure to permanent middle artery occlusion (MCAO), a model of ischemic stroke.
Forty three hypertensive rats were exposed to permanent middle artery occlusion (MCAO). Starting at two days after occlusion and continuing for 14 days, Siramesine was administered p.o. in doses of 0.3 mg/kg (14 rats) or 1.0 mg/kg (14 rats). In a control group (15 rats), vehicle only was administered. On day 35 after permanent MCAO, the rats were assessed for their performance in the Morris Water Maze Test.
In the test, the rats were given a series of 6 trials, 1 hour apart in a large dark-colored tank (200 cm in ) filled with clear water at a temperature of 22.0±1.5° C. A 12×12-cm submerged platform (2 mm below the water surface) was placed in the northwest quadrant of the pool. The release point was always the southern end of the pool. The rats were lowered into the pool facing the wall, and then released. Each rat was given a maximum of 90 seconds to find the submerged platform. […] After remaining on the platform for 20 seconds, the rat was removed and placed in a dry cage. One hour later, each rat was given a second trial, using the same release position and platform position, to measure the rat's retention of the platform location. The process was repeated a total of 5 times for each rat, each trial 1 hour apart. The swim paths of the rats were recorded with a computer tracking system and the latency and the length of swim path to find the hidden platform were analyzed.

In series [9] the target is sigma-2 receptor (Homo sapiens, UniProt Q5BJF2). Conditions: Perregaard et al. (1995); cited from earlier work.
For series [10] the following is noted: hydrohalide salts, in particular the hydrochloride salt; WO 99/24436; cited from earlier work.
The test system of series [11] is ischemia in gerbils. Conditions: cited from earlier work.
The test system of series [12] is NMDA-type of glutamate receptors. Conditions: cited from earlier work.

sigma-1 receptor, sequence (Q99720 whole entry): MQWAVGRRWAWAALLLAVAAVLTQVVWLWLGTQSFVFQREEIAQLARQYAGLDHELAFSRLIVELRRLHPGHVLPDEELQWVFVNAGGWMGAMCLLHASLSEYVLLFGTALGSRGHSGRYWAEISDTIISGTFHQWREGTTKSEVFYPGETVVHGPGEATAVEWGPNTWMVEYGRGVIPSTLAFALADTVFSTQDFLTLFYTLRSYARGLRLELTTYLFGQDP
sigma-2 receptor, sequence (Q5BJF2 whole entry, species assumed): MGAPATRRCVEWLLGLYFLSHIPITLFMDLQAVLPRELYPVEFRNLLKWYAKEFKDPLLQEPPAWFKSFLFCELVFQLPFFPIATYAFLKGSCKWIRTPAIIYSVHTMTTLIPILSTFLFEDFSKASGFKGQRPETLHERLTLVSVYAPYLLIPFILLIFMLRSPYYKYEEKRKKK
sigma-1 site, sequence (Q99720 whole entry): as the sequence (Q99720 whole entry) above

`CC(C)=CCN1CCC2(C)c3cc(O)ccc3CC1C2C` (single isomer, unassigned; (+)) [(+)pentazocine]: the “affinity for the sigma-1 site compared to the sigma-2 site” value in [1] is given as “nearly two orders of magnitude higher affinity for the sigma-1 site”.
As to `OC(CCCN1CCN(c2ncc(F)cn2)CC1)c1ccc(F)cc1` (stereo not drawn) [BMY-14802], in series [2], the “protective effects against NMDA-induced toxicity and seizures” value (from here on “protective effects”) is “protective effects against NMDA-induced toxicity and seizures”.
Turning to `O=C(OCCN1CCOCC1)C1(c2ccccc2)CCCCC1` [III], in [3], the “performance in rotating pole test versus control” value is “perform better than the group 1 control animals”. The “performance in cylinder test versus control” value in series [4] is recorded as “perform better than the group 1 control animals”.
Consider `O=C(NC1CCN(Cc2ccccc2)CC1)c1ccc(I)cc1` [II], for which the “performance in rotating pole test versus control” value in series [3] is recorded as “perform better than the group 1 control animals”. In addition, in series [4], the “performance in cylinder test versus control” value is reported as “perform better than the group 1 control animals”.
For the molecule `COc1ccc(CCN2CCN(CCCc3ccccc3)CC2)cc1OC` [IV], the “performance in rotating pole test versus control” value in [3] is listed as “perform better than the group 1 control animals”. For the same molecule, in series [4], the “performance in cylinder test versus control” value is listed as “perform better than the group 1 control animals”.
Turning to `COc1ccc(CN2CCN(Cc3ccccc3)CC2)c(O)c1OC` [IX], the “performance in rotating pole test versus control” value in [3] was “perform better than the group 1 control animals”. Further, the “performance in cylinder test versus control” value in series [4] is “perform better than the group 1 control animals”.
With `COc1ccc(CCN2CCN(CCCc3ccccc3)CC2)cc1OC` [SA4503, 1-(3,4-dimethoxyphenethyl)-4-(3-phenylpropyl) piperazine], the “suppression of hypoxia/hypoglycemia-induced neurotoxicity” value in series [5] is reported as “significantly suppress hypoxia/hypoglycemia-induced neurotoxicity”. Further, the “activity against glutamate neurotoxicity” value in series [6] is recorded as “active against glutamate neurotoxicity”. Moreover, the “sigma-1 receptor functional activity” value in series [7] is recorded as “selective sigma-1 agonist”.
As to `Fc1ccc(-n2cc(CCCCN3CCC4(CC3)OCc3ccccc34)c3ccccc32)cc1` [Siramesine, 1′-[4-[1-(4-fluorophenyl)-1H-indol-3-yl]-1-butyl] spiro [isobenzofuran-1(3H),4′-piperidine]], in [8] (0.3 mg/kg p.o.), the “Latency to Find Hidden Platform, TRIAL 3” value was determined as 47.0 s; the “Latency to Find Hidden Platform, TRIAL 4” value was determined as 33.1 s; the “Latency to Find Hidden Platform, TRIAL 5” value turned out to be 15.66 s; the “Latency to Find Hidden Platform, TRIAL 1” value was 72.4 (7.3) SECONDS. Also, in series [8] (0.3 mg/kg p.o.), the “Latency to Find Hidden Platform, TRIAL 2” value is given as 43.6 (7.9) SECONDS; the “Path Length to Find Hidden Platform, TRIAL 1” value is reported as 14.5 (1.8) METERS; the “Path Length to Find Hidden Platform, TRIAL 2” value is on record as 12.4 (2.3) METERS; the “Path Length to Find Hidden Platform, TRIAL 3” value is 14.4 (2.7) METERS. In [8] (0.3 mg/kg p.o.), the “Path Length to Find Hidden Platform, TRIAL 4” value is recorded as 10.4 (2.4) METERS and the “Path Length to Find Hidden Platform, TRIAL 5” value is on record as 4.3 (0.6) METERS. Also, in series [8] (1.0 mg/kg p.o.), the “Latency to Find Hidden Platform, TRIAL 3” value came out at 59.99 s; the “Latency to Find Hidden Platform, TRIAL 4” value stood at 34.3 s; the “Latency to Find Hidden Platform, TRIAL 5” value came out at 19.8 s; the “Latency to Find Hidden Platform, TRIAL 1” value is listed as 62.4 (7.7) SECONDS. Besides, in series [8] (1.0 mg/kg p.o.), the “Latency to Find Hidden Platform, TRIAL 2” value is recorded as 62.2 (8.5) SECONDS; the “Path Length to Find Hidden Platform, TRIAL 1” value is reported as 11.1 (1.4) METERS; the “Path Length to Find Hidden Platform, TRIAL 2” value is recorded as 16.2 (2.2) METERS; the “Path Length to Find Hidden Platform, TRIAL 3” value is given as 16.65 (2.2) METERS. For the same molecule, in series [8] (1.0 mg/kg p.o.), the “Path Length to Find Hidden Platform, TRIAL 4” value was 9.7 (1.9) METERS and the “Path Length to Find Hidden Platform, TRIAL 5” value is on record as 5.29 (1.5) METERS. The “functional recovery, in particular recovery in a cognitive skill” value in series [8] (administered daily to rats from 2 days after the stroke for 14 days) is reported as “facilitates functional recovery”. In [3], the “performance in rotating pole test versus control” value was “perform better than the group 1 control animals”. In addition, the “performance in cylinder test versus control” value in series [4] is on record as “perform better than the group 1 control animals”. Besides, the “sigma-2 receptor functional activity” value in series [9] is given as “selective sigma-2 agonist”. For the same molecule, in series [10], the bioavailability result is “good bioavailability”. For the same molecule, in series [7], the “sigma-1 receptor functional activity” value was “displays activity towards the sigma 1 receptor”.
Regarding `CN(CCc1ccc(Cl)c(Cl)c1)C1CCCCC1N1CCCC1` (stereo not drawn) [VIII], the “performance in rotating pole test versus control” value in [3] is on record as “perform better than the group 1 control animals”. Besides, the “performance in cylinder test versus control” value in series [4] was “perform better than the group 1 control animals”.
With `COc1cccc2c1CCC(=O)N2CCCN1CCN(c2cccc(Cl)c2)CC1` [VII], in series [3], the “performance in rotating pole test versus control” value is listed as “perform better than the group 1 control animals”. For the same molecule, the “performance in cylinder test versus control” value in [4] is given as “perform better than the group 1 control animals”.
For the molecule `CCC(C/C=C/c1ccccc1)(c1ccccc1)N(C)CC1CC1` (stereo not drawn) [VI], the “performance in rotating pole test versus control” value in series [3] is “perform better than the group 1 control animals”. Moreover, the “performance in cylinder test versus control” value in series [4] was “perform better than the group 1 control animals”.
As to `CCN(CC)CCOC(=O)C1(c2ccccc2)CCCC1` [caramiphen], the “protective effects” value in series [2] is “protective effects against NMDA-induced toxicity and seizures”.
`COCCCC/C(=N\OCCN)c1ccc(C(F)(F)F)cc1` [compound I]: the “performance in rotating pole test versus control” value in series [3] was “perform better than the group 1 control animals”. Also, the “performance in cylinder test versus control” value in series [4] is on record as “perform better than the group 1 control animals”.
Consider `O=C(CCCN1CCC(O)(c2ccc(Cl)cc2)CC1)c1ccc(F)cc1` [haloperidol], for which, in series [2], the “protective effects” value was “protective effects against NMDA-induced toxicity and seizures”.
As for `OCCN1CCN(CCCN2c3ccccc3C=Cc3ccccc32)CC1` [opipramol], in series [11], the protection against ischemia entry is “protect against ischemia in gerbils”. Moreover, the “modulation of NMDA-type glutamate receptors” value in [12] is on record as “modulate the NMDA-type of glutamate receptors”.
